Source: publication PMC6832134, “Discovery of Novel Integrase Inhibitors Acting outside the Active Site Through High-Throughput Screening” (Molecules, 2019)
Where “and” joins values, the source holds several entries; their conditions need not be identical. Identical values can stand only once. Like-named read-outs stand apart in the source and are kept apart here.

What was measured:
HIV-1 integrase = target: T1, HIV-1 integrase (Human immunodeficiency virus type 1 group M subtype B, UniProt P12497); assay: Electrochemiluminescent integrase strand transfer assay (BioVeris), high-throughput screen; format: biochemical; settings: for inhibition at 10 µM: single dose 10 µM, read-out: inhibition of IN ST activity
T1 construct: 250 nM of recombinant HIV-1 integrase; made in house; host or cells: E. coli RosettaII
Description: To enable a high-throughput screening, we used the ST assay developed by BioVeris. This proprietary plate-based assay measured stand transfer using electrochemiluminescent technology. First, we validated the assay using HIV-1 IN in the presence of DMSO, or increasing concentrations of a known inhibitor, MA-DKA (also known as 118-D-24, Figure 1A). […] Next, we used MA-DKA as a control in every test plate and screened a large library of molecules. Overall, 3095 compounds were tested as part of the NCI Developmental Therapeutics Program’s small molecule plated sets from the Open Chemical Repository Collection. […] A single dose testing (10 µM) enabled the identification of 130 molecules that inhibited ST by over 50% (light dashed line, Figure 1A). […] NSC153308 is a 2-phenacylsulfanylacetic acid that resembles the diketo acid chemotype. On the other side, NSC119889 is a xanthene derivative similar to V-165 [6]. […] However, the purpose of this study was to identify a new chemotype that might act on IN via a novel mechanism, distinct from known active site inhibitors. Accordingly, we retrieved the chemical structure of the 130 hits and looked for a chemical pattern different from that of conventional strand transfer inhibitors.
This electrochemiluminescent plate-based assay was performed using a BioVeris M-SERIES Analyzer (Gaithersburg, MD, USA). DNA substrates were obtained from BioVeris and used according to the manufacturer’s recommendations. Briefly, a biotinylated donor DNA was incubated for 30 min at 37 °C in the presence of 250 nM of recombinant HIV-1 integrase. Complexes were bound to paramagnetic streptavidin-coated beads (M-280 Dynabeads). After addition of the drug, the integration reaction was initiated by addition of a ruthenium-labeled target DNA. The reaction was carried out for 60 min at 37 °C, before reading on the BioVeris M-SERIES Analyzer.

HIV-1 IN [1] = target: T2, HIV-1 IN (Human immunodeficiency virus type 1 group M subtype B, UniProt P12497); parameters: method as in PMID 12920196; settings: ref [4], read-out: IC50, ST inhibition, cited from earlier work
T2 construct: 250 nM of recombinant HIV-1 integrase; made in house; host or cells: E. coli RosettaII

HIV-1 IN [2] = target: T2, HIV-1 IN; parameters: method as in PMID 12920196; settings: regardless of metal cofactor; ref [4]; read-out: IC50, inhibition of 3'-P; cited from earlier work
HIV-1 IN [3] = target: T2, HIV-1 IN; assay: Gel-based IN 3'-processing assay; format: biochemical; settings: at least three independent experiments, read-out: In Vitro IC50 +/−SD, 3'-P
Description: (§1) IN reactions were carried out by adding drugs or an equivalent volume of 100% DMSO (dimethyl sulfoxide, used as the drug solvent) to a mixture of 20 nM duplex DNA (21T/21B) and 400 nM IN in 50 mM MOPS pH 7.2, 7.5 mM MgCl2, and 14 mM 2-mercaptoethanol. Reactions were performed at 37 °C for 2 h and quenched by addition of an equal volume of loading buffer [formamide containing 1% SDS (sodium dodecyl sulfate), 0.25% bromophenol blue, and xylene cyanol]. Reaction products were separated in 16% polyacrylamide denaturing sequencing gels. Dried gels were visualized using a Typhoon 8600 (GE Healthcare, Piscataway, NJ, USA). Densitometric analyses were performed using the ImageQuant 5.1 software from GE Healthcare. Data analyses (linear regression, IC50 determination, and standard deviation) were performed using Prism 6.05 software from GraphPad.

HIV-1 IN (WT) = target: T3, HIV-1 IN (WT) (Human immunodeficiency virus type 1 group M subtype B, UniProt P12497); assay: Gel-based IN strand transfer assay, WT enzyme; format: biochemical; settings: gel-based assay, coupled ST, at least three independent experiments; read-out: In Vitro IC50 +/−SD, ST
T3 construct: 250 nM of recombinant HIV-1 integrase; made in house; host or cells: E. coli RosettaII
Description: as §1

[4] = target: T4, HIV-1 IN mutant G140S/Q148H (Human immunodeficiency virus type 1 group M subtype B, UniProt P12497, G1287S/Q1295H); assay: Gel-based IN strand transfer assay, G140S/Q148H mutant; format: biochemical
T4 construct: RAL-resistant HIV-1 mutant integrases; made in house; host or cells: E. coli RosettaII
Description: as §1

HIV-1 IN mutant Y143R = target: T5, HIV-1 IN mutant Y143R (Human immunodeficiency virus type 1 group M subtype B, UniProt P12497, Y1290R); assay: Gel-based IN strand transfer assay, Y143R mutant; format: biochemical
T5 construct: RAL-resistant HIV-1 mutant integrases; made in house; host or cells: E. coli RosettaII
Description: as §1

HIV-1 IN mutant N155H [5] = target: T6, HIV-1 IN mutant N155H (Human immunodeficiency virus type 1 group M subtype B, UniProt P12497, N1302H); assay: biochemical; format: biochemical
T6 construct: RAL-resistant HIV-1 mutant integrases; made in house; host or cells: E. coli RosettaII
Description: as §1

[6] = tested on: VSV pseudo-typed HIV-1 virus particles; assay: organism not typed; format: cell-based; settings: for EC50: read-out: Ex Vivo Antiviral Activity EC50
HIV-1 IN [7] = target: T2, HIV-1 IN; assay: Synergy test with the active site inhibitor MK-2048; format: biochemical; settings: subinhibitory dose of stilbene disulfonic acid derivative; IC50 of MK-2048 not affected; data not shown
in vitro = settings: human
HIV-1 IN mutant N155H [8] = assay: biochemical; format: biochemical; settings: N155H vs WT, Figure 2B
Description: as §1

SMILES: O=C(O)C(=O)CC(=O)c1cccn1Cc1ccc(F)cc1 [MA-DKA]
- inhibition of IN ST activity (HIV-1 integrase; at 10 µM, obtained from linear regression of the dose response in Figure 1A): 94.8%
- IC50 (HIV-1 integrase; electrochemiluminescent plate-based assay, dose response, read-out: IC50, ST inhibition): 163 nM
- IC50 (HIV-1 IN [1]; magnesium as cofactor): 330 nM
- IC50 (HIV-1 IN [1]; manganese as cofactor): 70 nM
- IC50 (HIV-1 IN [2]): 70000 nM

SMILES: Nc1ccc(/C=C/c2ccc(N)cc2S(=O)(=O)O)c(S(=O)(=O)O)c1 [NSC163]
- IC50 (HIV-1 IN [3]): > 111000 nM
- IC50 (HIV-1 IN (WT)): > 111000 nM

SMILES: Nc1ccc(/N=N/c2ccc(/C=C/c3ccc(/N=N/c4ccc(N)c5ccc(S(=O)(=O)O)cc45)cc3S(=O)(=O)O)c(S(=O)(=O)O)c2)c2cc(S(=O)(=O)O)ccc12 [NSC34933]
- IC50 (HIV-1 IN [3]): 1100 ± 300 nM
- IC50 (HIV-1 IN (WT)): 500 ± 200 nM
- IC50 [4]: 320 nM
- IC50 (HIV-1 IN mutant Y143R): 95 nM
- IC50 (HIV-1 IN mutant N155H [5]): 91 nM
- Selectivity Index SI [6]: >166
- EC50 [6]: 600 nM
- synergy with active site inhibitor MK-2048 (HIV-1 IN [7]): could not see any cooperative effect
- CC50 (in vitro): > 100000 nM

SMILES: CCOc1ccc(/N=N/c2ccc(/C=C/c3ccc(/N=N/c4ccc(OCC)cc4)cc3S(=O)(=O)O)c(S(=O)(=O)O)c2)cc1 [NSC47745]
- IC50 (HIV-1 IN [3]): ~3000 nM and 3200 nM
- IC50 (HIV-1 IN (WT)): ~3000 nM and 3100 nM
- Selectivity Index SI [6]: >6.5
- EC50 [6]: 15300 nM
- CC50 (in vitro): > 100000 nM

SMILES: O=C(Nc1ccc(Sc2ccc(/N=N/c3c(O)c(S(=O)(=O)O)cc4cc(S(=O)(=O)O)ccc34)cc2)cc1)c1ccc(/N=N/c2c(O)ccc3c(S(=O)(=O)O)cc(S(=O)(=O)O)cc23)cc1 [NSC76027]
- inhibition at 10 µM (HIV-1 integrase): 62.8%

SMILES: O=C(O)c1c(Br)c(Br)c(Br)c(Br)c1C1c2ccc(O)cc2Oc2cc(O)ccc21 [NSC119889]
- inhibition at 10 µM (HIV-1 integrase): 98.5%

SMILES: O=C(O)CSCC(=O)c1ccccc1 [NSC153308]
- inhibition at 10 µM (HIV-1 integrase): 99.5%

SMILES: O=[N+]([O-])c1ccc(/C=C/c2ccc([N+](=O)[O-])cc2S(=O)(=O)O)c(S(=O)(=O)O)c1 [NSC163175]
- IC50 (HIV-1 IN [3]): > 111000 nM
- IC50 (HIV-1 IN (WT)): > 111000 nM

SMILES: O=S(=O)(O)c1cc(/N=N/c2cc(S(=O)(=O)O)c3cccnc3c2O)ccc1/C=C/c1ccc(/N=N/c2cc(S(=O)(=O)O)c3cccnc3c2O)cc1S(=O)(=O)O [NSC638352]
- inhibition at 10 µM (HIV-1 integrase): 67.2%

SMILES: Cc1nnc(C(=O)NC(C)(C)c2nc(C(=O)NCc3ccc(F)cc3)c(O)c(=O)n2C)o1 [RAL, raltegravir, reference compound]
- loss of potency compared to the WT enzyme (HIV-1 IN mutant N155H [8]): one to two orders of magnitude
